The values that follow come from US8168668B2, “Compounds” (AstraZeneca AB, priority 2005, dated 2012).

The structures appear in SMILES notation. pEC50, pIC50: −log10 of the molar value. Values after ≈ are worked out from the molar mass of the structure shown.

Tested on in the first data set: not listed separately
Put plainly: aqueous solubility test. In kind it is physicochemical. As to conditions: aqueous medium, pH 7.4, aqueous buffer.
On to `C[C@H](NC(=O)Cn1cnc2cccc([N+](=O)[O-])c21)c1ccc(OCCF)cc1` [Example 3, N-{(1S)-1-[4-(2-fluoroethoxy)phenyl]ethyl}-2-(7-nitro-1H-benzimidazol-1-yl)acetamide], for which the concentration in solution (solubility) was 90 µM (≈ 34.8 µg/mL). That is a double-digit micromolar value.

`COCC(C)Oc1ccc([C@H](C)NC(=O)Cn2cnc3cccc([N+](=O)[O-])c32)cc1` (stereo partly drawn) [Example 5, N-{(1S)-1-[4-(2-methoxy-1-methylethoxy)phenyl]ethyl}-2-(7-nitro-1H-benzimidazol-1-yl)acetamide] came in with a solubility of 97 µM (≈ 40 µg/mL). The solubility values of the last two molecules are within 1.5-fold of each other.

For `CCOc1ccc([C@H](C)NC(=O)Cn2cnc3cccc([N+](=O)[O-])c32)cc1` [Example 6, N-[(1S)-1-(4-ethoxyphenyl)ethyl]-2-(7-nitro-1H-benzimidazol-1-yl)acetamide], the concentration in solution (solubility) was 72 µM (≈ 26.5 µg/mL). This solubility and that of the molecule before are within 1.5-fold of each other.

The molecule `CC(NC(=O)Cn1cnc2cccc([N+](=O)[O-])c21)c1ccc(OCC(F)F)nc1` (stereo not drawn) [Example 9, N-{1-[6-(2,2-difluoroethoxy)pyridin-3-yl]ethyl}-2-(7-nitro-1H-benzimidazol-1-yl)acetamide] came in with a solubility of 98 µM (≈ 39.7 µg/mL).

With `CC(NC(=O)Cn1cnc2cccc([N+](=O)[O-])c21)c1ccc(OCC(F)(F)F)cc1` (stereo not drawn) [Example 14, 2-(7-nitro-1H-benzimidazol-1-yl)-N-{1-[4-(2,2,2-trifluoroethoxy)phenyl]ethyl}acetamide], the solubility stood at 63 µM (≈ 26.6 µg/mL). This solubility lies about 1.6-fold lower than the previous one.

`CC(NC(=O)Cn1cnc2cccc([N+](=O)[O-])c21)c1ccc(OCC(F)F)cc1` (stereo not drawn) [Example 19, N-{1-[4-(2,2-difluoroethoxy)phenyl]ethyl}-2-(7-nitro-1H-benzimidazol-1-yl)acetamide]: the solubility came to 75 µM (≈ 30.3 µg/mL).

`CC(NC(=O)Cn1cnc2cccc(C#N)c21)c1ccc(OC(CF)CF)cc1` (stereo not drawn) [Example 24, 2-(7-cyano-1H-benzimidazol-1-yl)-N-(1-{4-[2-fluoro-1-(fluoromethyl)ethoxy]phenyl}ethyl)acetamide] had a solubility of 94 µM (≈ 37.5 µg/mL).

Molecule `CCC(NC(=O)Cn1cnc2cccc([N+](=O)[O-])c21)c1ccc(C(F)(F)F)cn1` (stereo not drawn) [Example 29, 2-(7-nitro-1H-benzimidazol-1-yl)-N-{1-[5-(trifluoromethyl)pyridin-2-yl]propyl}acetamide] registered a solubility of 92 µM (≈ 37.5 µg/mL).

In turn, `CC(NC(=O)Cn1cnc2cccc([N+](=O)[O-])c21)c1ccc(C(F)(F)F)cn1` (stereo not drawn) [Example 30, 2-(7-nitro-1H-benzimidazol-1-yl)-N-{1-[5-(trifluoromethyl)pyridin-2-yl]ethyl}acetamide] displayed a solubility of 97 µM (≈ 38.2 µg/mL).

As for `CC(NC(=O)Cn1cnc2cccc(Cl)c21)c1ncc(C(F)(F)F)cc1Cl` (stereo not drawn) [Example 31, 2-(7-chloro-1H-benzimidazol-1-yl)-N-{1-[3-chloro-5-(trifluoromethyl)pyridin-2-yl]ethyl}acetamide], the concentration in solution (solubility) was 87 µM (≈ 36.3 µg/mL).

Molecule `CC(NC(=O)Cn1cnc2cccc([N+](=O)[O-])c21)c1ncc(C(F)(F)F)cc1Cl` (stereo not drawn) [Example 32, N-{1-[3-chloro-5-(trifluoromethyl)pyridin-2-yl]ethyl}-2-(7-nitro-1H-benzimidazol-1-yl)acetamide] had a solubility of 87 µM (≈ 37.2 µg/mL).

In the case of `CC(C)Oc1ccc(C(C)NC(=O)Cn2cnc3cccc(Cl)c32)cn1` (stereo not drawn) [Example 35, 2-(7-chloro-1H-benzimidazol-1-yl)-N-[1-(6-isopropoxypyridin-3-yl)ethyl]acetamide], the solubility stood at 100 µM (≈ 37.3 µg/mL).

For `CC(C)Oc1ccc(C(C)NC(=O)Cn2cnc3cccc([N+](=O)[O-])c32)cn1` (stereo not drawn) [Example 38, N-[1-(6-isopropoxypyridin-3-yl)ethyl]-2-(7-nitro-1H-benzimidazol-1-yl)acetamide], the solubility stood at 86 µM (≈ 33 µg/mL).

As for `C#Cc1ccc(C(C)NC(=O)Cn2cnc3cccc([N+](=O)[O-])c32)cc1` (stereo not drawn) [Example 41, N-[1-(4-ethynylphenyl)ethyl]-2-(7-nitro-1H-benzimidazol-1-yl)acetamide], the solubility is 82 µM (≈ 28.6 µg/mL). This solubility and that of the molecule before are within 1.5-fold of each other.

`C#Cc1ccc(C(C)NC(=O)Cn2cnc3cccc(Cl)c32)cc1` (stereo not drawn) [Example 42, 2-(7-chloro-1H-benzimidazol-1-yl)-N-[1-(4-ethynylphenyl)ethyl]acetamide] had a solubility of 77 µM (≈ 26 µg/mL).

`CC(NC(=O)Cn1cnc2cccc([N+](=O)[O-])c21)c1ccc(OC2CCN(C)CC2)c(C(F)(F)F)c1` (stereo not drawn) [Example 46, N-{1-[4-[(1-Methylpiperidin-4-yl)oxy]-3-(trifluoromethyl)phenyl]ethyl}-2-(7-nitro-1H-benzimidazol-1-yl)acetamide]: the concentration in solution (solubility) was 100 µM (≈ 50.5 µg/mL). This solubility and that of the molecule before are within 1.5-fold of each other.

A further data set deals with carrageenan-induced heat hyperalgesia. Put plainly: Carrageenan model, heat plantar test (paw withdrawal latency). In kind it is in vivo. As to conditions: po, rat, orally administered, tested at Tmax. For orientation: In the carrageenan paw model, swelling and tenderness develop within hours.
Molecule `C[C@H](NC(=O)Cn1cnc2cccc([N+](=O)[O-])c21)c1ccc(OC(CF)CF)cc1` [Example 2, N-((1S)-1-{4-[2-fluoro-1-(fluoromethyl)ethoxy]phenyl}ethyl)-2-(7-nitro-1H-benzimidazol-1-yl)acetamide] had a pEC50 of 6.98 and an ED50 of 1.3 µmol/kg.

Staying with this data set, now noted: rat, orally administered, non-linear regression.
Turning to `C[C@H](NC(=O)Cn1cnc2cccc([N+](=O)[O-])c21)c1ccc(OC(CF)CF)cc1` [Example 2, N-((1S)-1-{4-[2-fluoro-1-(fluoromethyl)ethoxy]phenyl}ethyl)-2-(7-nitro-1H-benzimidazol-1-yl)acetamide], the “Extrapolated Emax” value is reported as 79%.

The same data set, now with this note: rat, orally administered, reversal of heat hyperalgesia.
For `C[C@H](NC(=O)Cn1cnc2cccc([N+](=O)[O-])c21)c1ccc(OC(CF)CF)cc1` [Example 2, N-((1S)-1-{4-[2-fluoro-1-(fluoromethyl)ethoxy]phenyl}ethyl)-2-(7-nitro-1H-benzimidazol-1-yl)acetamide], the Emax observed was 79%.

The data set is the same for the next values; noted with them: rat, orally administered, tested at Tmax.
`C[C@H](NC(=O)Cn1cnc2cccc([N+](=O)[O-])c21)c1ccc(OC(CF)CF)cc1` [Example 2, N-((1S)-1-{4-[2-fluoro-1-(fluoromethyl)ethoxy]phenyl}ethyl)-2-(7-nitro-1H-benzimidazol-1-yl)acetamide] showed an EC80 of 170 nM.

In a further data set the target is T1, hVR1 (Homo sapiens, UniProt Q8NER1).
T1 construct: expressed in transfected cells
T1 sequence (Q8NER1 whole entry): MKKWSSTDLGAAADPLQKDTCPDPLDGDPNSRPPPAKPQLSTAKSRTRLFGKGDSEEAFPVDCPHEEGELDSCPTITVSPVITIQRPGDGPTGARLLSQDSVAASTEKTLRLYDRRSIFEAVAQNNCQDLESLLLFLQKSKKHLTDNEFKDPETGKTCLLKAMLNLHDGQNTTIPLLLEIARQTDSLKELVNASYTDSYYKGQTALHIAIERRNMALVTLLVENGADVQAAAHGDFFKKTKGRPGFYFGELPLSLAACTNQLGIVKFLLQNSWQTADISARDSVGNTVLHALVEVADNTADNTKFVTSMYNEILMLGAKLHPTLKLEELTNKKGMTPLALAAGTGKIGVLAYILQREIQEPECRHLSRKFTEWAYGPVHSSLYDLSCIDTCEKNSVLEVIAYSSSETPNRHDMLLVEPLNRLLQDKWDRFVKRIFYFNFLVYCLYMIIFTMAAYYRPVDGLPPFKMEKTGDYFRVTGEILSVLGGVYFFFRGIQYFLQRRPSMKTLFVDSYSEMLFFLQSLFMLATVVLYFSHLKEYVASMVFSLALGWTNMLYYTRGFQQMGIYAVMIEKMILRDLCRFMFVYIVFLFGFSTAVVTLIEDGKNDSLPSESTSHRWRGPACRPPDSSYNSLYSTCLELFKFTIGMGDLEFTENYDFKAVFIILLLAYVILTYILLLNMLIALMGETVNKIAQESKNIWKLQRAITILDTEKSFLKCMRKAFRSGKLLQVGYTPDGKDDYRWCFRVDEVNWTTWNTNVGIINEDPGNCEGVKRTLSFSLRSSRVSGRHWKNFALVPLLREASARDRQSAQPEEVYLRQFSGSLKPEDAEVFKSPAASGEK
In words: hVR1 FLIPR (Fluorometric Image Plate Reader) screening assay. In kind it is cell-based. The settings on record: inhibition of capsaicin-induced intracellular calcium increase. Here is the method: 1. hVR1 FLIPR (Fluorometric Image Plate Reader) Screening Assay
Transfected CHO cells, stably expessing hVR1 (15,000 cells/well) are seeded in 50 ul media in a black clear bottom 384 plate (Greiner) and grown in a humidified incubator (37° C., 2% CO2), 24-30 hours prior to experiment.
Subsequently, the media is removed from the cell plate by inversion and 2 μM Fluo-4 is added using a multidrop (Labsystems). Following the 40 minutes dye incubation in the dark at 37° C. and 2% CO2, the extracellular dye present is washed away using an EMBLA (Scatron), leaving the cells in 40 ul of assay buffer (1×HBSS, 10 mM D-Glucose, 1 mM CaCl2, 10 mM HEPES, 10×7.5% NaHCO3 and 2.5 mM Probenecid).
FLIPR Assay—IC50 Determination Protocol
For IC50 determinations the fluorescence is read using FLIPR filter 1 (em […]). A is cellular baseline recording is taken for 30 seconds, followed by a 20 μl addition of 10, titrated half-log concentrations of the test compound, yielding cellular concentration ranging from 3 μM to 0.1 nM. Data is collected every 2 seconds for a further 5 minutes prior to the addition of a VR1 agonist solution: 20-50 nM solution of capsaicin by the FLIPR pipettor. The FLIPR continues to collect data for a further 4 minutes. Compounds having antagonistic properties against the hVR1 will inhibit the increase in intracellular calcium in response to the capsaicin addition. This consequently leading to a reduction in fluorescence signal and providing a reduced fluorescence reading, compared with no compound, buffer controls. Data is exported by the FLIPR program as a sum of fluorescence calculated under the curve upon the addition of capsaicin. Maximum inhibition, Hill slope and IC50 data for each compound are generated. […]
(Calcium flux is commonly read through the fluorescence of an indicator in the cells.)
As to `CC(C)Oc1ccc([C@H](C)NC(=O)Cn2cnc3cccc([N+](=O)[O-])c32)cc1` [Example 1, N-[(1S)-1-(4-isopropoxyphenyl)ethyl]-2-(7-nitro-1H-benzimidazol-1-yl)acetamide], the pIC50 is 9.00.

With `C#CC(C)Oc1ccc([C@H](C)NC(=O)Cn2cnc3cccc([N+](=O)[O-])c32)cc1` (stereo partly drawn) [Example 4, N-((1S)-1-{4-[(1-methylprop-2-yn-1-yl)oxy]phenyl}ethyl)-2-(7-nitro-1H-benzimidazol-1-yl)acetamide], the pIC50 is 8.52.

Turning to `CC(NC(=O)Cn1cnc2cccc([N+](=O)[O-])c21)c1ccc(OC2CCCC2)nc1` (stereo not drawn) [Example 12, N-{1-[6-(cyclopentyloxy)pyridine-3-yl]ethyl}-2-(7-nitro-1H-benzimidazol-1-yl)acetamide], the pIC50 was 8.30.

In the case of `CC[C@H](C)Oc1ccc([C@H](C)NC(=O)Cn2cnc3cccc([N+](=O)[O-])c32)cc1` [Example 15, N-[(1S)-1-(4-{[(1S)-1-methylpropyl]oxy}phenyl)ethyl]-2-(7-nitro-1H-benzimidazol-1-yl)acetamide], the pIC50 was 9.00.

Regarding `CC(NC(=O)Cn1cnc2cccc([N+](=O)[O-])c21)c1ccc(C(F)(F)Cl)cc1` (stereo not drawn) [Example 16, N-(1-{4-[chloro(difluoro)methyl]phenyl}ethyl)-2-(7-nitro-1H-benzimidazol-1-yl)acetamide], the pIC50 was 8.00.

Take `CC(NC(=O)Cn1cnc2cccc([N+](=O)[O-])c21)c1ccc(OC(F)(F)C(F)F)cc1` (stereo not drawn) [Example 22, 2-(7-nitro-1H-benzimidazol-1-yl)-N-{1-[4-(1,1,2,2-tetrafluoroethoxy)phenyl]ethyl}acetamide]: the pIC50 is 8.30.

Consider `CC(NC(=O)Cn1cnc2cccc([N+](=O)[O-])c21)c1ccc(OC(F)(F)F)cc1` (stereo not drawn) [Example 36, 2-(7-nitro-1H-benzimidazol-1-yl)-N-{1-[4-(trifluoromethoxy)phenyl]ethyl}acetamide], for which the negative-log IC50 (pIC50) is 8.05.

`CC(NC(=O)Cn1cnc2cccc([N+](=O)[O-])c21)c1ccc(C(F)(F)F)cc1` (stereo not drawn) [Example 37, 2-(7-nitro-1H-benzimidazol-1-yl)-N-{1-[4-(trifluoromethyl)phenyl]ethyl}acetamide]: the pIC50 was 8.22.

For `CC(NC(=O)Cn1cnc2cccc([N+](=O)[O-])c21)c1ccc(OC2CCCC2)c(F)c1` (stereo not drawn) [Example 39, N-{1-[4-(cyclopentyloxy)-3-fluorophenyl]ethyl}-2-(7-nitro-1H-benzimidazol-1-yl)acetamide], the pIC50 was 9.00.

As to `CC(NC(=O)Cn1cnc2cccc([N+](=O)[O-])c21)c1ccc(C2CC2)cc1` (stereo not drawn) [Example 40, N-[1-(4-cyclopropylphenyl)ethyl]-2-(7-nitro-1H-benzimidazol-1-yl)acetamide], the pIC50 was 8.52.

For the molecule `CO[C@@H](C)COc1ccc(C(C)NC(=O)Cn2cnc3cccc([N+](=O)[O-])c32)cc1C(F)(F)F` (stereo partly drawn) [Example 47, N-{1-[4-{[(2S)-2-Methoxypropyl]oxy}-3-(trifluoromethyl)phenyl]ethyl}-2-(7-nitro-1H-benzimidazol-1-yl)acetamide], the pIC50 was 8.10.

`CC(COc1cccc(C(F)(F)F)c1)NC(=O)Cn1cnc2cccc([N+](=O)[O-])c21` (stereo not drawn) [Example 48, N-{1-methyl-2-[3-(trifluoromethyl)phenoxy]ethyl}-2-(7-nitro-1H-benzimidazol-1-yl)acetamide]: the pIC50 is 8.15.

Broadly, the solubility is how much of the substance goes into solution per volume. A lower solubility goes with a poorly soluble substance. A word on the pEC50: it is −log10 of the EC50, conventionally taken in molar units. Read a low pEC50 as a high EC50. For orientation: ED50 means the dose that gives a 50% effect, or the effect in half of the subjects. Low readings indicate greater potency, high ones weaker potency. Usually EC80 stands for the concentration at which the effect reaches the 80% level. A low value points to greater potency. The term pIC50 denotes −log10 of the IC50, conventionally taken in molar units.
